According to US10301294B2, “Compounds for the treatment of tuberculosis” (priority 2013, dated 2019):
Where two headings read alike, the source gives them in different places.

Assays:
Assay type in all cases: cell-based
[1] = Cytotoxicity against HepG2; settings: human, HepG2 cells, 26.0 uM highest concentration measured
[2] = tested on: carbon-starved M. tuberculosis H37Rv; assay: Non-replicating IC90 determination by luciferase (carbon-starved cells); settings: luciferase; for IC90 / IC99: Mycobacterium tuberculosis, H37RV; for IC99: 120 h, read-out: Against carbon starved non-replicating Mtb IC99 (uM, luciferase); for IC99 / Against carbon starved non-replicating Mtb IC99 (uM, luciferase): None = inhibition did not reach 99%
[3] = Cytotoxicity against Hek 293; settings: human, HEK293 cells, 26.0 uM highest concentration measured
[4] = Cytotoxicity against HeLa; settings: human, HeLa cells, 26.0 uM highest concentration measured
[5] = tested on: replicating M. tuberculosis H37Rv; assay: microbe, parasite or virus in culture; settings: None = inhibition did not reach 90%; for IC90: Mycobacterium tuberculosis, H37RV, read-out: Against Replicating Mtb IC90 (uM, GFP)
[6] = non-replicating carbon-starved Mtb, three independent experiments in triplicate, read-out: TB Growth Inhibition Activity, IC90 Non-replicating_luciferase

SMILES | IC50 [1] | IC90 [2, 6] | IC50 [3] | IC50 [4] | IC99 [2] | IC90 [5] | further results
FC(F)(F)c1ccc(CSc2nnc(-c3ccccc3)o2)cc1 | > 26 µM | 1 µM | > 26 µM | > 26 µM | – | – | –
c1ccc(CSc2nnc(-c3ccncc3)o2)cc1 | > 26 µM | 31 µM | > 26 µM | > 26 µM | – | – | –
COc1ccccc1CSc1nnc(-c2ccccc2)o1 | > 26 µM | 2 µM | > 26 µM | > 26 µM | – | – | –
FC(F)(F)Oc1cccc(CSc2nnc(-c3ccccc3)o2)c1 | > 26 µM | 2 µM | > 26 µM | > 26 µM | – | – | –
CS(=O)(=O)c1ccccc1CSc1nnc(-c2ccccc2)o1 | > 26 µM | – | > 26 µM | > 26 µM | – | – | –
FC(F)(F)c1ccc(-c2nnc(SCc3ccccc3)o2)cc1 | > 26 µM | 1 µM | > 26 µM | > 26 µM | – | – | –
c1ccc(-c2ccc(CSc3nnc(-c4ccccc4)o3)cc2)cc1 | > 26 µM | 8 µM | > 26 µM | > 26 µM | – | – | –
O=C(Cc1ccccc1)c1nnc(-c2ccccc2)o1 | > 26 µM | 16 µM | > 26 µM | > 26 µM | – | – | –
N#Cc1cccc(-c2nnc(SCc3ccccc3)o2)c1 | > 26 µM | 8 µM | > 26 µM | > 26 µM | – | – | –
CS(=O)(=O)c1cccc(-c2nnc(SCc3ccccc3)o2)c1 | > 26 µM | 125 µM | > 26 µM | > 26 µM | – | – | –
CS(=O)(=O)c1ccc(CSc2nnc(-c3ccccc3)o2)cc1 | > 26 µM | 31 µM | > 26 µM | > 26 µM | – | – | –
Cc1cccc(-c2nnc(SCc3ccccc3)o2)c1 | > 26 µM | 8 µM | > 26 µM | > 26 µM | – | – | –
c1ccc(COc2nnc(-c3ccccc3)o2)cc1 | > 26 µM | 8 µM | > 26 µM | > 26 µM | – | – | –
FC(F)(F)CNCCSc1nnc(-c2ccccc2)o1 | > 26 µM | 250 µM | > 26 µM | > 26 µM | – | – | –
c1ccc(-c2nnc(SCCN3CCOCC3)o2)cc1 | > 26 µM | 250 µM | > 26 µM | > 26 µM | – | – | –
FC(F)(F)Oc1ccccc1-c1nnc(SCc2ccccc2)o1 | > 26 µM | 62 µM | > 26 µM | > 26 µM | – | – | –
Clc1cccc(CSc2nnc(-c3ccccc3)o2)c1 | > 26 µM | 4 µM | > 26 µM | > 26 µM | – | – | –
Fc1ccc(CSc2nnc(-c3ccccc3)o2)cc1 [drawing 136] | > 26 µM | 1 µM | > 26 µM | > 26 µM | – | – | –
c1ccc(-c2nnc(SCCN3CCCC3)o2)cc1 | > 26 µM | 16 µM | > 26 µM | > 26 µM | – | – | –

SMILES | IC50 [1] | IC90 [2, 6] | IC50 [3] | IC50 [4] | IC99 [2] | IC90 [5] | further results
FC(F)(F)c1ccccc1CSc1nnc(-c2ccccc2)o1 | > 26 µM | 1 µM | > 26 µM | > 26 µM | – | – | –
Clc1cccc(-c2nnc(SCc3ccccc3)o2)c1 | > 26 µM | 8 µM | > 26 µM | > 26 µM | – | – | –
Fc1cccc(-c2nnc(SCc3ccccn3)o2)c1 [drawing 216] | – | – | – | – | 16 µM | 31 µM | –
COC(=O)CCCOc1ccc(CSc2nnc(-c3ccc(F)cc3)o2)nc1 | – | – | – | – | 31 µM | 125 µM | –
C#CCCCOc1cccc(-c2nnc(SCc3ccccn3)o2)c1 | – | – | – | – | 16 µM | – | Against Replicating Mtb IC90 (uM, GFP) [5]: None
COc1ccccc1-c1nnc(SCc2ccccn2)o1 | – | – | – | – | 125 µM | – | Against Replicating Mtb IC90 (uM, GFP) [5]: None
c1ccc(CSc2nnc(-c3cccnc3)o2)nc1 | – | – | – | – | 250 µM | > 500 µM | –
COC(=O)c1ccc(CSc2nnc(-c3ccc(Cl)cc3)o2)nc1 | – | – | – | – | 16 µM | – | Against Replicating Mtb IC90 (uM, GFP) [5]: None
COCCSc1nnc(-c2ccc(C)cc2)o1 | – | – | – | – | 31 µM | 31 µM | –
COCCSc1nnc(-c2ccc(Cl)cc2)o1 | – | – | – | – | 16 µM | 50 µM | –
[O-][S+](Cc1ccccc1)c1nnc(-c2ccccc2)o1 (centres unmarked) [drawing 213] | – | – | – | – | 4 µM | 125 µM | –
c1ccc(-c2nnc(NCc3ccccn3)o2)cc1 | – | – | – | – | – | > 500 µM | Against carbon starved non-replicating Mtb IC99 (uM, luciferase) [2]: None
Cc1ccc(-c2nnc([S+]([O-])Cc3cccc[n+]3[O-])o2)cc1 (centres unmarked) | – | – | – | – | 62 µM | 125 µM | –
CSc1nnc(-c2ccccc2)o1 | – | – | – | – | – | > 250 µM | Against carbon starved non-replicating Mtb IC99 (uM, luciferase) [2]: None
c1ccc(CSc2nnc(-c3ccc(-c4ccccc4)cc3)o2)cc1 | > 26 µM | – | > 26 µM | > 26 µM | – | – | –
[N-]=[N+]=NOCCNC(=O)CCCOc1ccc(-c2nnc([S+]([O-])Cc3ccccn3)o2)cc1 (centres unmarked) | – | – | – | – | 62 µM | 125 µM | –
C#CCCCOc1cc(-c2nnc(SCc3ccccn3)o2)ccc1OC | – | – | – | – | 16 µM | – | Against Replicating Mtb IC90 (uM, GFP) [5]: None
COC(=O)c1ccc(C[S+]([O-])c2nnc(-c3ccc(Cl)cc3)o2)nc1 (centres unmarked) | – | – | – | – | 4 µM | 125 µM | –
OCC#CCSc1nnc(-c2ccc(Cl)cc2)o1 | – | – | – | – | 8 µM | 62 µM | –

SMILES | IC50 [1] | IC90 [2, 6] | IC50 [3] | IC50 [4] | IC99 [2] | IC90 [5] | further results
Clc1ccc(-c2nnc(SCc3ccccn3)o2)cc1 | – | – | – | – | 16 µM | 62 µM | –
[N-]=[N+]=NCCOCCNC(=O)c1ccc(C[S+]([O-])c2nnc(-c3ccc(Cl)cc3)o2)nc1 (centres unmarked) | – | – | – | – | 62 µM | 250 µM | –
c1ccc(-c2nnc(SCc3ccccn3)o2)cc1 [drawing 177] | – | – | – | – | 31 µM | 100 µM | –
CN1CCCCC1COc1nnc(-c2ccc(Cl)cc2)o1 (centres unmarked) | – | – | – | – | 500 µM | > 500 µM | –
CCOC(=O)COc1ccc(-c2nnc(SCc3ccccn3)o2)cc1 | – | – | – | – | 31 µM | – | Against Replicating Mtb IC90 (uM, GFP) [5]: None
COCCS(=O)(=O)c1nnc(-c2ccc(Cl)cc2)o1 | – | – | – | – | 250 µM | > 500 µM | –
CS(=O)(=O)c1ccc(-c2nnc(SCc3ccccc3)o2)cc1 | > 26 µM | – | > 26 µM | > 26 µM | – | – | –
COc1ccc(CSc2nnc(-c3ccc(Cl)cc3)o2)nc1 [drawing 228] | – | – | – | – | 8 µM | 31 µM | –
Clc1ccc(-c2nnc(OCc3ccccn3)o2)cc1 | – | – | – | – | 250 µM | 250 µM | –
Fc1ccc(CSc2nnc(-c3ccc(Cl)cc3)o2)cc1 | – | – | – | – | – | > 500 µM | Against carbon starved non-replicating Mtb IC99 (uM, luciferase) [2]: None
Fc1ccc(CSc2nnc(-c3cccnc3)o2)cc1 | – | – | – | – | 62 µM | > 500 µM | –
c1cncc(-c2nnc(SCCC3OCCCO3)o2)c1 | – | – | – | – | – | > 500 µM | Against carbon starved non-replicating Mtb IC99 (uM, luciferase) [2]: None
COCCNc1nnc(-c2ccc(Cl)cc2)o1 | – | – | – | – | – | > 500 µM | Against carbon starved non-replicating Mtb IC99 (uM, luciferase) [2]: None
Clc1ccc(-c2nnc(SCc3cn(Cc4ccccc4)nn3)o2)cc1 [drawing 224] | – | – | – | – | 16 µM | – | Against Replicating Mtb IC90 (uM, GFP) [5]: None
Brc1ccc(-c2nnc(SCc3ccccn3)o2)cc1 [drawing 212] | – | – | – | – | 8 µM | 31 µM | –
COCCSc1nnc(-c2cccnc2)o1 | – | – | – | – | – | > 500 µM | Against carbon starved non-replicating Mtb IC99 (uM, luciferase) [2]: None
c1ccc(-c2nnc(OCc3ccccn3)o2)cc1 | – | – | – | – | – | > 500 µM | Against carbon starved non-replicating Mtb IC99 (uM, luciferase) [2]: None
C#CCCCOc1cc(-c2nnc(SCc3ccccn3)o2)ccc1F | – | – | – | – | 64 µM | – | IC90 ([2]; IC90 given in brackets beside IC99, read-out: Against carbon starved non-replicating Mtb IC90 (in brackets, luciferase)): 4 µM; Against Replicating Mtb IC90 (uM, GFP) [5]: None
COCCS(=O)(=O)c1nnc(-c2ccc(C)cc2)o1 | – | – | – | – | 8 µM | 31 µM | –
